Measured values taken from patent US8613914B2, “Peptidomimetic sulfamide compounds and antiviral uses thereof” (Novartis AG, priority 2009, dated 2013).

target: HCV NS3-4A serine protease (full-length NS3-4A protein) (Hepatitis C virus genotype 1a (isolate 1) (HCV), UniProt P26664); experiment: HCV NS3-4A protease assay; assay type: biochemical, HCV genotype 1a; settings: strain HCV-1, fluorogenic peptide substrate, read-out: Protease assay Ex. 12 IC50
Procedure: The inhibitory activity of certain compounds of Table A against HCV NS3-4A serine protease is determined in a homogenous assay using the full-length NS3-4A protein (genotype 1a, strain HCV-1) and a commercially available internally-quenched fluorogenic peptide substrate as described by Taliani, M., et al. 1996 Anal. Biochem. 240:60-67, which is incorporated by reference in its entirety.

Sequence of HCV NS3-4A serine protease (full-length NS3-4A protein) (P26664 1027-1657): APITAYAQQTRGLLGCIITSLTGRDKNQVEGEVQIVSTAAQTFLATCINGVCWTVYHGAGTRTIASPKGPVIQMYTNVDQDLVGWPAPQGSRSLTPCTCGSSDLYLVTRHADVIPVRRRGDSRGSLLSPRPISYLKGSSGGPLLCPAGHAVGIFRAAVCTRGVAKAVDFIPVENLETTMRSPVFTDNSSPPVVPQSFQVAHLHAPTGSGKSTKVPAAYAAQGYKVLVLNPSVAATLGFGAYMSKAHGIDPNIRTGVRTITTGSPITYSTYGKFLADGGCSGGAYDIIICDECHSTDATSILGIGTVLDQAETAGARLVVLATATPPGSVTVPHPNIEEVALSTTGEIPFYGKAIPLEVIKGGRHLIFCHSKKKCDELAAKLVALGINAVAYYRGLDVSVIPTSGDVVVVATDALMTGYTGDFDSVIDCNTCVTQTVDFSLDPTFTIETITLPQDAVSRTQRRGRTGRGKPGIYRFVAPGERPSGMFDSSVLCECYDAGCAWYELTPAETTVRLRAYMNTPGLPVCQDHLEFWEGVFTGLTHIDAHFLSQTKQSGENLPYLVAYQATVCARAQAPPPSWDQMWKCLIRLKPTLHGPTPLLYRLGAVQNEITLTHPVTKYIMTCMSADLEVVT
Sequence of HCV NS3-4A serine protease (full-length NS3-4A protein) (P26664 1658-1711 partner): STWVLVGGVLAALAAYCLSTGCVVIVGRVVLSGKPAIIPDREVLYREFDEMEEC

Compound	IC50
C=C[C@@H]1C[C@]1(NC(=O)[C@@H]1C[C@@]2(CN1C(=O)[C@@H](NC(=O)[C@@H](NC(=O)[C@@H]1CCCCN1C(C)C)C1CCCCC1)C(C)(C)C)C(C)(C)C21CCC1)C(=O)NS(=O)(=O)N1CC[C@H](F)C1 [Compound 46, (5R,8S)-7-[(2S)-2-{[(2S)-2-cyclohexyl-2-({[(2S)-1-isopropylpiperidin-2-yl]carbonyl}amino)acetyl]amino}-3,3-dimethylbutanoyl]-N-[(1R,2S)-1-({[(3S)-3-fluoropyrrolidin-1-yl]sulfonyl}carbamoyl)-2-vinylcyclopropyl]-10,10-dimethyl-7-azadispiro[3.0.4.1]decane-8-carboxamide]	2 nM
C=C[C@@H]1C[C@]1(NC(=O)[C@@H]1C[C@@]2(CN1C(=O)[C@@H](NC(=O)[C@@H](NC(=O)[C@@H]1CCCCN1C(C)C)C(C)C)C(C)(C)C)C(C)(C)C21CCC1)C(=O)NS(=O)(=O)N(CC)CC [Compound 122, (5R,8S)-N-[(1R,2S)-1-{[(diethylamino)sulfonyl]carbamoyl}-2-vinylcyclopropyl]-7-[(2S)-2-{[(2S)-2-({[(2S)-1-isopropylpiperidin-2-yl]carbonyl}amino)-3-methylbutanoyl]amino}-3,3-dimethylbutanoyl]-10,10-dimethyl-7-azadispiro[3.0.4.1]decane-8-carboxamide]	1.4 nM
C=C[C@@H]1C[C@]1(NC(=O)[C@@H]1C[C@@]2(CN1C(=O)[C@@H](NC(=O)[C@@H](NC(=O)[C@H]1CCCN1CC)C1CCCCC1)C(C)(C)C)C(C)(C)C21CCC1)C(=O)NS(=O)(=O)N1CCCC1 [Compound 38, (5R,8S)-7-[(2S)-2-{[(2S)-2-cyclohexyl-2-({[(2R)-1-ethylpyrrolidin-2-yl]carbonyl}amino)acetyl]amino}-3,3-dimethylbutanoyl]-10,10-dimethyl-N-{(1R,2S)-1-[(pyrrolidin-1-ylsulfonyl)carbamoyl]-2-vinylcyclopropyl}-7-azadispiro[3.0.4.1]decane-8-carboxamide]	3.5 nM
C=C[C@@H]1C[C@]1(NC(=O)[C@@H]1C[C@@]2(CN1C(=O)[C@@H](NC(=O)[C@@H](NC(=O)c1cc3cc(OC)ccc3[nH]1)C1CCCCC1)C(C)(C)C)C(C)(C)C21CCC1)C(=O)NS(=O)(=O)N1CCCC1 [Compound 176, (5R,8S)-7-{(2S)-2-[(cyclohexyl{[(5-methoxy-1H-indol-2-yl)carbonyl]amino}acetyl)amino]-3,3-dimethylbutanoyl}-10,10-dimethyl-N-{(1R,2S)-1-[(pyrrolidin-1-ylsulfonyl)carbamoyl]-2-vinylcyclopropyl}-7-azadispiro[3.0.4.1]decane-8-carboxamide]	25 nM
C=C[C@@H]1C[C@]1(NC(=O)[C@@H]1C[C@@]2(CN1C(=O)[C@@H](NC(=O)[C@@H](NC(=O)CN1CCc3ccccc3C1)C1CCCCC1)C(C)(C)C)C(C)(C)C21CCC1)C(=O)NS(=O)(=O)N1CCCC1 [Compound 177, (5R,8S)-7-[(2S)-2-({cyclohexyl[(3,4-dihydroisoquinolin-2(1H)-ylacetyl)amino]acetyl}amino)-3,3-dimethylbutanoyl]-10,10-dimethyl-N-{(1R,2S)-1-[(pyrrolidin-1-ylsulfonyl)carbamoyl]-2-vinylcyclopropyl}-7-azadispiro[3.0.4.1]decane-8-carboxamide]	25 nM
C=C[C@@H]1C[C@]1(NC(=O)[C@@H]1C[C@@]2(CN1C(=O)[C@@H](NC(=O)[C@@H](NC(=O)C1CCN(C(C)=O)CC1)C1CCCCC1)C(C)(C)C)C(C)(C)C21CCC1)C(=O)NS(=O)(=O)N1CCCC1 [Compound 194, (5R,8S)-7-[(2S)-2-{[{[(1-acetylpiperidin-4-yl)carbonyl]amino}(cyclohexyl)acetyl]amino}-3,3-dimethylbutanoyl]-10,10-dimethyl-N-{(1R,2S)-1-[(pyrrolidin-1-ylsulfonyl)carbamoyl]-2-vinylcyclopropyl}-7-azadispiro[3.0.4.1]decane-8-carboxamide]	10 nM
C=C[C@@H]1C[C@]1(NC(=O)[C@@H]1C[C@@]2(CN1C(=O)[C@@H](NC(=O)[C@@H](NC(=O)[C@@H]1CCCN1CC)C1(C)CCOCC1)C1(C)CCCCC1)C(C)(C)C21CCC1)C(=O)NS(=O)(=O)N(CC)CC [Compound 157, (5R,8S)-N-[(1R,2S)-1-{[(diethylamino)sulfonyl]carbamoyl}-2-vinylcyclopropyl]-7-[(2S)-2-{[(2S)-2-({[(2S)-1-ethylpyrrolidin-2-yl]carbonyl}amino)-2-(4-methyltetrahydro-2H-pyran-4-yl)acetyl]amino}-2-(1-methylcyclohexyl)acetyl]-10,10-dimethyl-7-azadispiro[3.0.4.1]decane-8-carboxamide]	1 nM
C=C[C@@H]1C[C@]1(NC(=O)[C@@H]1C[C@@]2(CN1C(=O)[C@@H](NC(=O)[C@@H](NC(=O)[C@@H]1CCCCN1C(C)C)C(C)(C)C)C(C)(C)C)C(C)(C)C21CCC1)C(=O)NS(=O)(=O)N1CCOCC1 [Compound 6, (5R,8S)-7-[(2S)-2-{[(2S)-2-({[(2S)-1-isopropylpiperidin-2-yl]carbonyl}amino)-3,3-dimethylbutanoyl]amino}-3,3-dimethylbutanoyl]-10,10-dimethyl-N-{(1R,2S)-1-[(morpholin-4-ylsulfonyl)carbamoyl]-2-vinylcyclopropyl}-7-azadispiro[3.0.4.1]decane-8-carboxamide]	45 nM
C=C[C@@H]1C[C@]1(NC(=O)[C@@H]1C[C@@]2(CN1C(=O)[C@@H](NC(=O)[C@@H](NC(=O)CN(C)C)C1CCCCC1)C(C)(C)C)C(C)(C)C21CCC1)C(=O)NS(=O)(=O)N1CCCC1 [Compound 200, (5R,8S)-7-{(2S)-2-[(cyclohexyl{[(dimethylamino)acetyl]amino}acetyl)amino]-3,3-dimethylbutanoyl}-10,10-dimethyl-N-{(1R,2S)-1-[(pyrrolidin-1-ylsulfonyl)carbamoyl]-2-vinylcyclopropyl}-7-azadispiro[3.0.4.1]decane-8-carboxamide]	8 nM
C=C[C@@H]1C[C@]1(NC(=O)[C@@H]1C[C@@]2(CN1C(=O)[C@@H](NC(=O)[C@@H](NC(=O)[C@@H]1CCCN1CC)C1(C)CCCCC1)C(C)(C)C)C(C)(C)C21CCC1)C(=O)NS(=O)(=O)N1CCCC1 [Compound 136, (5R,8S)-7-[(2S)-2-{[(2S)-2-({[(2S)-1-ethylpyrrolidin-2-yl]carbonyl}amino)-2-(1-methylcyclohexyl)acetyl]amino}-3,3-dimethylbutanoyl]-10,10-dimethyl-N-{(1R,2S)-1-[(pyrrolidin-1-ylsulfonyl)carbamoyl]-2-vinylcyclopropyl}-7-azadispiro[3.0.4.1]decane-8-carboxamide]	7 nM
C=C[C@@H]1C[C@]1(NC(=O)[C@@H]1C[C@@]2(CN1C(=O)[C@@H](NC(=O)[C@@H](NC(=O)[C@@H]1CCCCN1C(C)C)C1CCCCC1)C(C)(C)C)C(C)(C)C21CCC1)C(=O)NS(=O)(=O)NC(C)(C)C [Compound 169, (5R,8S)-N-[(1R,2S)-1-{[(tert-butylamino)sulfonyl]carbamoyl}-2-vinylcyclopropyl]-7-[(2S)-2-{[(2S)-2-cyclohexyl-2-({[(2S)-1-isopropylpiperidin-2-yl]carbonyl}amino)acetyl]amino}-3,3-dimethylbutanoyl]-10,10-dimethyl-7-azadispiro[3.0.4.1]decane-8-carboxamide]	1.5 nM
C=CC1CC1(NC(=O)[C@@H]1C[C@@]2(CN1C(=O)[C@@H](NC(=O)[C@@H](NC(=O)C1CCCCN1C(C)C)C(C)(C)C)C(C)(C)C)C(C)(C)C21CCC1)C(=O)NS(=O)(=O)N1CCC[C@H]1CO (stereo partly drawn) [Compound 163, (5R,8S)-N-[1-({[(2S)-2-(hydroxymethyl)pyrrolidin-1-yl]sulfonyl}carbamoyl)-2-vinylcyclopropyl]-7-[(2S)-2-{[(2S)-2-{[(1-isopropylpiperidin-2-yl)carbonyl]amino}-3,3-dimethylbutanoyl]amino}-3,3-dimethylbutanoyl]-10,10-dimethyl-7-azadispiro[3.0.4.1]decane-8-carboxamide]	1500 nM
C=C[C@@H]1C[C@]1(NC(=O)[C@@H]1C[C@@]2(CN1C(=O)[C@@H](NC(=O)[C@@H](NC(=O)[C@@H]1CCCCN1C(C)C)C1(C)CCOCC1)C1(C)CCCCC1)C(C)(C)C21CCC1)C(=O)NS(=O)(=O)N(CC)CC [Compound 158, (5R,8S)-N-[(1R,2S)-1-{[(diethylamino)sulfonyl]carbamoyl}-2-vinylcyclopropyl]-7-[(2S)-2-{[(2S)-2-({[(2S)-1-isopropylpiperidin-2-yl]carbonyl}amino)-2-(4-methyltetrahydro-2H-pyran-4-yl)acetyl]amino}-2-(1-methylcyclohexyl)acetyl]-10,10-dimethyl-7-azadispiro[3.0.4.1]decane-8-carboxamide]	22 nM
C=C[C@@H]1C[C@]1(NC(=O)[C@@H]1C[C@@]2(CN1C(=O)[C@@H](NC(=O)[C@@H](NC(=O)c1cccc(N(C)C)n1)C1CCCCC1)C(C)(C)C)C(C)(C)C21CCC1)C(=O)NS(=O)(=O)N1CCCC1 [Compound 69, (5R,8S)-7-[(2S)-2-{[(2S)-2-cyclohexyl-2-({[6-(dimethylamino)pyridin-2-yl]carbonyl}amino)acetyl]amino}-3,3-dimethylbutanoyl]-10,10-dimethyl-N-{(1R,2S)-1-[(pyrrolidin-1-ylsulfonyl)carbamoyl]-2-vinylcyclopropyl}-7-azadispiro[3.0.4.1]decane-8-carboxamide]	50 nM
C=C[C@@H]1C[C@]1(NC(=O)[C@@H]1C[C@@]2(CN1C(=O)[C@@H](NC(=O)[C@@H](NC(=O)[C@@H]1CCCN1CC)C1CCCCC1)C(C)(C)C)C(C)(C)C21CCC1)C(=O)NS(=O)(=O)N1CCCC1 [Compound 39, (5R,8S)-7-[(2S)-2-{[(2S)-2-cyclohexyl-2-({[(2S)-1-ethylpyrrolidin-2-yl]carbonyl}amino)acetyl]amino}-3,3-dimethylbutanoyl]-10,10-dimethyl-N-{(1R,2S)-1-[(pyrrolidin-1-ylsulfonyl)carbamoyl]-2-vinylcyclopropyl}-7-azadispiro[3.0.4.1]decane-8-carboxamide]	2.5 nM
